Laboratory results reported in patent publication US20250340516A1, “Isoquinolinones as Modulators of POLRMT” (Pretzel Therapeutics, Inc., priority 2024, published 2025).

Target: POLRMT (Homo sapiens (Human), UniProt O00411)
Experiment: homogeneous TR-FRET assay of POLRMT inhibition (mitochondrial transcription, 407 bp RNA product)
Type: biochemical
Details: 7.5 nM POLRMT, 15 nM TFB2M, 30 nM TFAM, 0.5 nM DNA template, 500 μM NTPs, 37° C., 60 minutes, * = aggregation of data sets, read-out: IC50 values for isoquinolinone compounds
Experimental: The inhibitory activity of the compounds of the present invention against POLRMT were determined by assays based on Bergbrede, T., et al., “An adaptable high-throughput technology enabling the identification of specific transcription modulators,” SLAC Discov., 22, 378-386 (2017).
The ability of some compounds of the present invention to inhibit POLRMT were determined in a homogeneous TR-FRET Assay using high-throughput screening in a 384-well plate format. This method is used to monitor the activity of mitochondrial transcription through measurement of its product, a 407 bp long RNA transcript. Detection of the product is facilitated by hybridization of two DNA-oligonucleotide probes to specific and adjacent sequences within the RNA product sequence. Upon annealing of the probes, two fluorophores are coupled directly to an acceptor nucleotide probe (ATTO647, 5′), or introduced via a coupled streptavidin with a biotinylated donor nucleotide probe (Europium cryptate) that is brought into sufficient proximity to serve as a fluorescence-donor-acceptor pair. Thus, a FRET signal at 665 nm is generated upon excitation at 340 nm.
Proteins used as transcription factors (POLRMT: NP_005026.3, TFAM: NP_003192.1, TFB2M: NP_071761.1) are diluted from their stocks to working concentrations of 1 μM, 20 μM and 4 μM respectively, in a dilution buffer containing 20 mM Tris-HCl (pH 8.0), 200 mM NaCl, 10% (v/v) glycerol, 1 mM Dithiothreitol (DTT), 0.5 mM EDTA.
DNA template is a pUC18 plasmid with the mitochondrial light strand promotor sequence (1-477) cloned between HindIII and BamHI sites. The DNA template is restriction linearized proximal to the promotor 3′-end (pUC-LSP).
The reaction mixture (10 uL) containing 7.5 nM POLRMT, 15 nM of TFB2M, 30 nM of TFAM, 0.5 nM of DNA template and 500 μM nucleotide triphosphate mix (NTPs) in a reaction buffer (containing 10 mM Tris-HCl (pH 7.5), 10 mM MgCl2, 40 mM NaCl, 10 mM DTT, 0.005% (w/v) Tween-20, 160 units/ml Rnase inhibitor and 0.1 mg/mL BSA) are dispensed to compounds in microplates, using a Thermo Multidrop® dispenser, and incubated at 37° C. in a VWR INCU-Line incubator for 60 minutes after mixing. No nucleotide triphosphate mix is added to negative control samples. Microplates with compounds to be tested in the assay are prepared from 10 mM compound stocks in 100% DMSO, equal amounts of DMSO without any compound are added to positive control and negative control samples.
During the incubation, a mix of the detection reagents is prepared in a buffer such that the enzymatic reaction is terminated due to chelating of Mg-ions and increased ionic strength, containing 50 mM Tris-HCl (pH 7.5), 700 mM NaCl, 20 mM EDTA, and 0.01% (w/v) Tween-20. Europium-streptavidin is pre-incubated with a 200-fold molar excess of a random sequence oligonucleotide to block unspecific binding of oligo, for two hours at ambient temperature in the dark. Afterwards, the blocked Europium-streptavidin is kept on ice until use.
At the end of the enzymatic reaction time, 5 μL detection oligo mix in the detection buffer is added, and assay plates are mixed and kept at ambient temperature for one hour, protected from light. The concentration of the Acceptor nucleotide oligo (e.g., ATTO647N-5′-[…]-3′ (SEQ ID NO: 1)) and Donor nucleotide oligo (e.g., bio-5′-AACACATCTCT(-bio)GCCAAACCCCA-bio-3′ (SEQ ID NO: 2)) in each assay well is 1 nM, and 3 nM, respectively.
After incubation with oligo mix, 5 μL of pre-blocked Europium-streptavidin reagent is dispensed to each assay well, assay plates are again mixed and kept at ambient temperature for one hour, protected from light.
The generated signal is measured with BMG Pherastar microtiter plate reader with a TRF light unit, using excitation at 340 nm, an integration time of 200 μs, and a delay time of 100 μs, before detection at 620 nm and 665 nm. The ratio of donor- and acceptor-fluorescence is used as a measure of the generated transcript product (i.e. enzymatic activity).

Chain of POLRMT (O00411 42-1230): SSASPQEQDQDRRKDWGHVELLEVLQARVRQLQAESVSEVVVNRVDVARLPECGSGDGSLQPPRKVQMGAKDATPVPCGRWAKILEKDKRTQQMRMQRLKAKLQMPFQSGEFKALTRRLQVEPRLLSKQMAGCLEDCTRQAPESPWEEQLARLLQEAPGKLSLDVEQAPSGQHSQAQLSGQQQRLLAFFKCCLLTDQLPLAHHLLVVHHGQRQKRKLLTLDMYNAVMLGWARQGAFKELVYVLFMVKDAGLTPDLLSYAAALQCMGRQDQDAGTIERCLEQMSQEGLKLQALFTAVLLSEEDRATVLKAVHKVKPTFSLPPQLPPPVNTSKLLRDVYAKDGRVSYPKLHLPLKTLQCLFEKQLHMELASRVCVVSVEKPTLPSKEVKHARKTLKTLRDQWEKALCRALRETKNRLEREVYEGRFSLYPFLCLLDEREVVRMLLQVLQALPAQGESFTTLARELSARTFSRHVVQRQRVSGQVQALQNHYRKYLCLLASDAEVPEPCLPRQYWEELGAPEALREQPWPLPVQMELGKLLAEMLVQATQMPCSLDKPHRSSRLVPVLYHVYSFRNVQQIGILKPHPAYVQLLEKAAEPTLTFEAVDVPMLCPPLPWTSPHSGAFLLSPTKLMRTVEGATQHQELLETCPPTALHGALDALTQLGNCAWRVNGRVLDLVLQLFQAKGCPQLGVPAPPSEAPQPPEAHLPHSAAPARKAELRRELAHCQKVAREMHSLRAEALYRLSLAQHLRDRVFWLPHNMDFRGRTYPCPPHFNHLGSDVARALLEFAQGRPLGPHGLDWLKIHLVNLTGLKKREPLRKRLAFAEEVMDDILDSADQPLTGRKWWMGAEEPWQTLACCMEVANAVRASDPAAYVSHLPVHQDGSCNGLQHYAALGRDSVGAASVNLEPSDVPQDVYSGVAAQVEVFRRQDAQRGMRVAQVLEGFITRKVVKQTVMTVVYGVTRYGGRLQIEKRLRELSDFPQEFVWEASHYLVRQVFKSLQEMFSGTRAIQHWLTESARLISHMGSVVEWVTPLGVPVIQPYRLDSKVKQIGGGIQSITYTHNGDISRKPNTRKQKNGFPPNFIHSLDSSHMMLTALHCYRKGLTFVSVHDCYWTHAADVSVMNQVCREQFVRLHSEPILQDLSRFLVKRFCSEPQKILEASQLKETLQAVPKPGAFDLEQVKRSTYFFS

Row | Compound | IC50
1 | Cc1cccc(C)c1-c1c[nH]c(=O)c2cc(O[C@H](C)C(=O)N3CCC(C)(C(=O)O)CC3)ccc12 [Example 20, (R)-1-(2-((4-(2,6-dimethylphenyl)-1-oxo-1,2-dihydroisoquinolin-7-yl)oxy)propanoyl)-4-methylpiperidine-4-carboxylic acid] | 100 nM
2 | Cc1ccccc1-c1c[nH]c(=O)c2cc(O[C@H](C)C(=O)N[C@H](C)C(N)=O)ccc12 [Example 21, (R)-N-((R)-1-amino-1-oxopropan-2-yl)-2-((1-oxo-4-(o-tolyl)-1,2-dihydroisoquinolin-7-yl)oxy)propanamide] | 200 nM
3 | CC(=O)N(C)CCN(C)C(=O)[C@@H](C)Oc1ccc2c(-c3ccccc3C)c[nH]c(=O)c2c1 [Example 22, (R)-N-methyl-N-(2-(N-methylacetamido)ethyl)-2-((1-oxo-4-(o-tolyl)-1,2-dihydroisoquinolin-7-yl)oxy)propanamide] | 2000 nM
4 | COCCN1CCN(C(=O)[C@@H](C)Oc2ccc3c(-c4ccccc4C)c[nH]c(=O)c3c2)CC1=O [Example 23, (R)-7-((1-(4-(2-methoxyethyl)-3-oxopiperazin-1-yl)-1-oxopropan-2-yl)oxy)-4-(o-tolyl)isoquinolin-1(2H)-one] | 300 nM
5 | Cc1ccccc1-c1c[nH]c(=O)c2cc(O[C@@H](C)C(=O)N[C@H](C)C(N)=O)ccc12 [Example 24, (S)-N-((R)-1-amino-1-oxopropan-2-yl)-2-((1-oxo-4-(o-tolyl)-1,2-dihydroisoquinolin-7-yl)oxy)propanamide] | 37000 nM
6 | COC(=O)CN(C)C(=O)[C@H](C)Oc1ccc2c(-c3ccccc3C)c[nH]c(=O)c2c1 [Example 25, methyl (S)-N-methyl-N-(2-((1-oxo-4-(o-tolyl)-1,2-dihydroisoquinolin-7-yl)oxy)propanoyl)glycinate] | > 100000 nM
7 | Cc1ccccc1-c1c[nH]c(=O)c2cc(O[C@@H](C)C(=O)N(C)CC(=O)O)ccc12 [Example 26, (S)-N-methyl-N-(2-((1-oxo-4-(o-tolyl)-1,2-dihydroisoquinolin-7-yl)oxy)propanoyl)glycine] | 43000 nM
8 | COCCN1C2CCC1CN(C(=O)[C@@H](C)Oc1ccc3c(-c4ccccc4C)c[nH]c(=O)c3c1)C2 [Example 27, 7-(((2R)-1-(8-(2-methoxyethyl)-3,8-diazabicyclo[3.2.1]octan-3-yl)-1-oxopropan-2-yl)oxy)-4-(o-tolyl)isoquinolin-1(2H)-one] | 100 nM
9 | CC(=O)N[C@H]1CCCN(C(=O)[C@@H](C)Oc2ccc3c(-c4ccccc4C)c[nH]c(=O)c3c2)C1 [Example 28, N-((S)-1-((R)-2-((1-oxo-4-(o-tolyl)-1,2-dihydroisoquinolin-7-yl)oxy)propanoyl)piperidin-3-yl)acetamide] | 100 nM
10 | CC(=O)N[C@@H]1CCCN(C(=O)[C@@H](C)Oc2ccc3c(-c4ccccc4C)c[nH]c(=O)c3c2)C1 [Example 29, N-((R)-1-((R)-2-((1-oxo-4-(o-tolyl)-1,2-dihydroisoquinolin-7-yl)oxy)propanoyl)piperidin-3-yl)acetamide] | 100 nM
11 | Cc1ccccc1-c1c[nH]c(=O)c2cc(O[C@H](C)C(=O)N3CCC(NC(N)=O)CC3)ccc12 [Example 30, (R)-1-(1-(2-((1-oxo-4-(o-tolyl)-1,2-dihydroisoquinolin-7-yl)oxy)propanoyl)piperidin-4-yl)urea] | 70 nM
12 | Cc1ccccc1-c1c[nH]c(=O)c2cc(O[C@H](C)C(=O)N3CCC(N(C)C)CC3)ccc12 [Example 31, (R)-7-((1-(4-(dimethylamino)piperidin-1-yl)-1-oxopropan-2-yl)oxy)-4-(o-tolyl)isoquinolin-1(2H)-one] | 300 nM
13 | Cc1ccccc1-c1c[nH]c(=O)c2cc(O[C@H](C)C(=O)N3CCC[C@H](N(C)C)C3)ccc12 [Example 32, 7-(((R)-1-((S)-3-(dimethylamino)piperidin-1-yl)-1-oxopropan-2-yl)oxy)-4-(o-tolyl)isoquinolin-1(2H)-one] | 200 nM
14 | Cc1ccccc1-c1c[nH]c(=O)c2cc(O[C@H](C)C(=O)N3CCC[C@@H](N(C)C)C3)ccc12 [Example 33, 7-(((R)-1-((R)-3-(dimethylamino)piperidin-1-yl)-1-oxopropan-2-yl)oxy)-4-(o-tolyl)isoquinolin-1(2H)-one] | 300 nM
15 | Cc1ccccc1-c1c[nH]c(=O)c2cc(O[C@H](C)C(=O)N3CCCC(C4(C(=O)O)CC4)C3)ccc12 (stereo partly drawn) [Example 34, 1-(1-((R)-2-((1-oxo-4-(o-tolyl)-1,2-dihydroisoquinolin-7-yl)oxy)propanoyl)piperidin-3-yl)cyclopropane-1-carboxylic acid] | 30 nM
16 | Cc1ccccc1-c1c[nH]c(=O)c2cc(O[C@H](C)C(=O)N3CCC[C@H](CC(N)=O)C3)ccc12 [Example 38, 2-((R)-1-((R)-2-((1-oxo-4-(o-tolyl)-1,2-dihydroisoquinolin-7-yl)oxy)propanoyl)piperidin-3-yl)acetamide] | 9 nM
17 | Cc1ccccc1-c1c[nH]c(=O)c2cc(O[C@H](C)C(=O)N3CCC[C@@H](CC(N)=O)C3)ccc12 [Example 39, 2-((S)-1-((R)-2-((1-oxo-4-(o-tolyl)-1,2-dihydroisoquinolin-7-yl)oxy)propanoyl)piperidin-3-yl)acetamide] | 40 nM
18 | N#CCOc1ccc2c(-c3ccccc3CCO)c[nH]c(=O)c2c1 [Example 42, 2-((4-(2-(2-hydroxyethyl)phenyl)-1-oxo-1,2-dihydroisoquinolin-7-yl)oxy)acetonitrile] | 300 nM
19 | COCc1ccccc1-c1c[nH]c(=O)c2cc(OCC#N)ccc12 [Example 47, 2-((4-(2-(methoxymethyl)phenyl)-1-oxo-1,2-dihydroisoquinolin-7-yl)oxy)acetonitrile] | 18000 nM
20 | Cc1cccc(C#N)c1-c1c[nH]c(=O)c2cc(OCC#N)ccc12 [Example 48, 2-(7-(cyanomethoxy)-1-oxo-1,2-dihydroisoquinolin-4-yl)-3-methylbenzonitrile] | 500 nM
21 | N#CCOc1ccc2c(-c3ccccc3OC(F)(F)F)c[nH]c(=O)c2c1 [Example 49, 2-((1-oxo-4-(2-(trifluoromethoxy)phenyl)-1,2-dihydroisoquinolin-7-yl)oxy)acetonitrile] | > 100000 nM
22 | CC(=O)N1CCN(C[C@@H](C)Oc2ccc3c(-c4ccccc4C)c[nH]c(=O)c3c2)CC1 [Example 54, (R)-7-((1-(4-acetylpiperazin-1-yl)propan-2-yl)oxy)-4-(o-tolyl)isoquinolin-1(2H)-one] | 4000 nM
23 | CC(=O)N1CCN(C[C@H](C)Oc2ccc3c(-c4ccccc4C)c[nH]c(=O)c3c2)CC1 [Example 55, (S)-7-((1-(4-acetylpiperazin-1-yl)propan-2-yl)oxy)-4-(o-tolyl)isoquinolin-1(2H)-one] | 37000 nM
24 | Cc1cc(F)ccc1-c1c[nH]c(=O)c2cc(O[C@H](C)C(=O)N3CCN(C(N)=O)CC3)ccc12 [Example 56, (R)-4-(2-((4-(4-fluoro-2-methylphenyl)-1-oxo-1,2-dihydroisoquinolin-7-yl)oxy)propanoyl)piperazine-1-carboxamide] | 30 nM
25 | Cc1c(F)cccc1-c1c[nH]c(=O)c2cc(O[C@H](C)C(=O)N3CCN(C(N)=O)CC3)ccc12 [Example 57, (R)-4-(2-((4-(3-fluoro-2-methylphenyl)-1-oxo-1,2-dihydroisoquinolin-7-yl)oxy)propanoyl)piperazine-1-carboxamide] | 20 nM
